Reference: patent publication US20050026833A1, “PSP-94: use for treatment of hypercalcemia and bone metastasis” (priority 2001, published 2005)
Entries after “also recorded” stand apart in the source; their conditions may differ.

What was measured:
[1] = test system: Mat Ly Lu-PTHrP cells; experiment: Mat Ly Lu-PTHrP cell growth curve (Coulter counter); assay type: cell-based, rat
Experimental: Growth curve. For growth curves, Mat Ly Lu-PTHrP cells were plated in 6-well plates (Falcon Plastics, Oxnard, Calif.) at seeding densities of 5×10^3 cells/well. Mat Ly Lu-PTHrP cells were grown in the presence of 0.1, 1.0 & 10.0 ug/ml of PSP-94 or vehicle alone for up to 3 days and the ability of PSP-94 to alter cell doubling time was evaluated daily. Medium was changed every two days. The number of cells was counted in a model Z Coulter counter (Coulter Electronics, Beds, UK). Comparison was also made with doubling time of wild type untransfected Mat Ly Lu cells.
(§1) Mat Ly Lu cells transfected with vector alone (CMV) or vector expressing PTHrP were seeded at a density of 5×10^3 cells/well in 6-well plates. Mat Ly Lu-PTHrP cells were treated with PSP-94 and were trypsinized and counted using a coulter counter as described herein. Change in cell number following treatment with 10.0 ug/ml of PSP-94 for 72 hrs is illustrated in FIG. 1.
(§2) Mat Ly Lu-PTHrP cells were seeded at a density of 5×10^3 cells/well in 6-well plates and treated with different doses (1.0-100.0 ug/ml) of PCK3145 for up to 5 days and were trypsinized and counted using a coulter counter as described herein.

[2] = test system: Mat Ly Lu-PTHrP cells; experiment: Cell morphology of treated Mat Ly Lu-PTHrP cells; assay type: cell-based, rat
Experimental: Cell morphology. Morphological analysis of control and experimental Mat Ly Lu-PTHrP cells treated with PSP-94 or PCK3145 was carried out by plating 5×10^4 cells/ well in 6-well plates (Falcon Plastics, Oxnard, Calif.) in the presence of 10% FBS.
as §1, §2

[3] = test system: Mat Ly Lu-PTHrP tumors; experiment: TUNEL assay and Hoechst counterstaining of primary tumor sections; assay type: in vivo, male Copenhagen rats; details: vs vehicle; for TUNEL staining of tumor sections: fifteen days
Experimental: For TUNEL assay, tissue sections were, for example, dewaxed (e.g., in xylene), (may also be rehydrated by heating at 60° C. followed by washing in xylene) and (further) rehydrated through a graded alcohol series (100%-70%). Tissues were incubated with proteinase K for 30 min at 37° C. fixed, blocked and permeabilized. Apoptotic cells were detected by TUNEL assay in situ cell death detection kit (Roche Molecular Biochemicals, Laval, QC) according to the manufacturer's instruction. Positive TUNEL staining was visualised by fluorescence microscopy. In other experiments following TUNEL assay, tissue sections were counterstained with Hoechst 33258 (Sigma-Aldrich, Canada). Hoechst staining was added to tissues at a final concentration of 24 ug/ml in PBS and incubated for 15 minutes at room temperature. Tissue sections were washed and visualized by fluorescence microscopy using a blue screen (Rabbani, S. A., et al., Int. J.Cancer, 87:276-282, 2000). All results of immunohistochemistry and TUNEL assay were evaluated and interpreted by two independent examiners.
The degree of DNA fragmentation was also analyzed in vivo using TUNEL assay which can serve as a marker for apoptosis. […] All animals were sacrificed at the end of the study and their primary tumors removed, paraffin embedded, sectioned and processed by TUNEL assay (upper panel of FIG. 14B) as described herein. Following TUNEL assay, they were counterstained with Hoescht reagent (lower panel of FIG. 14B).
In order to investigate an underlying molecular mechanism of action of PCK3145 in reducing tumor growth, Mat Ly Lu-PTHrP tumors were analyzed using TUNEL assay which can serve as a marker for apoptosis. […] All animals were sacrificed at the end of the study and their primary tumors removed, paraffin embedded, sectioned and processed by TUNEL assay (upper panel) and counterstained with Hoescht reagent (lower panel). Five animals were present in each group and three sections were analyzed for each animal.

For “E W Q T D N C E T C T C Y E T (EWQTDNCETCTCYET; PCK3145 (polypeptide 31-45))”, the cell growth ([1]; PCK3145 1.0-100.0 ug/ml up to 5 days, vs vehicle) was “dose dependent decrease”, the cell number ([1]; PCK3145 highest dose 100.0 ug/ml, vs vehicle) was “significant reduction” and the cell morphology ([2]; 100.0 ug/ml PCK3145 (data not shown)) was “changed their morphology from a more spindle-like appearance to a more circular and condensed shape”. For the same molecule, the “Hoechst counterstaining of tumor sections” value (“Hoechst counterstaining” for short) ([3]; Example 9, PCK3145 study) was “presence of apoptotic bodies” and the “TUNEL staining of tumor sections” value ([3]; PCK3145 100.0 ug/kg/day) was “significantly more TUNEL positive”.

B1: PSP-94: prostate secretory protein of 94 amino acids; native human seminal plasma PSP-94 (protein)
chain: SCYFIPNEGVPGDSTRKCMDLKGNKHPINSEWQTDNCETCTCYETEISCCTLVSTPVGYDKDNCQRIFKKEDCKYIVVEKKDPKKTCSVSEWII
For B1, the MatLyLu-PTHrP cell growth ([1]; 10.0 ug/ml PSP-94 for 72 hrs, vs cells without PSP-94) was “significant decrease”, the tumor cell morphology ([2]; 10.0 ug/ml PSP-94 for 3 days (data not shown)) was “noticeable change in tumor cell morphology” and the “Hoechst counterstaining” value ([3]; Example 9, PCK3145 study) was “condensed chromatin”. For the same molecule, the “TUNEL staining of tumor sections” value ([3]; PSP-94 10.0 ug/kg/day) was “significantly more TUNEL positive” and the “Hoechst counterstaining” value ([3]; PSP-94 treated animals) was “presence of apoptotic bodies; also recorded: condensed chromatin”.
